Experimental data published in US20210038579A1, “Treatment Of Patients With Classic Fabry Disease” (Amicus Therapeutics, Inc., priority 2018, published 2021).
Changes are numbered by the printed parent chain.

Columns and labels:
[1] = target: T1, α-Gal A mutant form p.Gly144Val (c.431 G > T) (Homo sapiens, UniProt P06280, G144V); experiment: HEK assay: α-Gal A activity in HEK-293 cell lysate with migalastat; format: cell-based
T1 construct: expressed in transfected cells; host or cells: HEK-293
T1 sequence (P06280 32-429 G144V): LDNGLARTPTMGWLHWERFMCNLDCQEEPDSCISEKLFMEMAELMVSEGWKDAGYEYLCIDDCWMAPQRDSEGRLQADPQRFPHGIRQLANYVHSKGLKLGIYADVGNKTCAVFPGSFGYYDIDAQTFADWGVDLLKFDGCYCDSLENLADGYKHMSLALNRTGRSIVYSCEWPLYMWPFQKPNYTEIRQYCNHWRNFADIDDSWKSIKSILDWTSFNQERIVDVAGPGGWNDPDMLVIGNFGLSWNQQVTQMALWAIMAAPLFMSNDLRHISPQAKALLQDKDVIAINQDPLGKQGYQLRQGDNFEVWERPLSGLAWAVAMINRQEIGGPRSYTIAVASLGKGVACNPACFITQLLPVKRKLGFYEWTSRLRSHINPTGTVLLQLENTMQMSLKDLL
Experimental: (§1) Such mutations are also referred to herein as “HEK assay amenable” mutations.
(§2) In this assay, cDNA constructs are created. The corresponding α-Gal A mutant forms are transiently expressed in HEK-293 cells. Cells are then incubated±migalastat (17 nM to 1 mM) for 4 to 5 days. After, α-Gal A levels are measured in cell lysates using a synthetic fluorogenic substrate (4-MU-α-Gal) or by western blot. This has been done for known disease-causing missense or small in-frame insertion/deletion mutations.

[2] = target: T2, α-Gal A mutant form p.Gly271Ser; Asp313Tyr (c.811 G > A; c.937 G > T) (Homo sapiens, UniProt P06280, D313Y/G271S); experiment: as above; format: cell-based
T2 construct: expressed in transfected cells; host or cells: HEK-293
T2 sequence (P06280 32-429 G271S/D313Y): T1 sequence (P06280 32-429 G144V) with V113G, G240S, D282Y
Experimental: as §1, §2

[3] = target: T3, α-Gal A mutant form p.Gly373Ser (c.1117 G > A) (Homo sapiens, UniProt P06280, G373S); experiment: as above; format: cell-based
T3 construct: expressed in transfected cells; host or cells: HEK-293
T3 sequence (P06280 32-429 G373S): T1 sequence (P06280 32-429 G144V) with V113G, G342S
Experimental: as §1, §2

[4] = system: GL-3 inclusions per kidney interstitial capillary; experiment: Phase 3 study, ERT-naïve Fabry patients: kidney histology assessment; format: in vivo, human
From the text: Kidney Histology Assessment. Each patient underwent a baseline kidney biopsy, as well as repeat kidney biopsies at 6 and 12 months. The number of GL-3 inclusions per kidney interstitial capillary per patient at baseline, and at 6 and 12 months was quantitatively assessed in 300 capillaries by 3 independent pathologists blinded to treatment and visit. All values for each individual biopsy at a given time were averaged prior to statistical analysis.
Statistical Analyses for Kidney Interstitial Capillary GL-3 Substrate. The primary Stage 1 (6 month) endpoint (i population with baseline biopsies, n=64) was the proportion of patients in the migalastat and placebo groups with a ≥50% reduction in GL-3 inclusions per kidney interstitial capillary. Two other Stage 1 endpoints were assessed (modified-ITT population: randomized patients with paired baseline and month 6 biopsies; n=60): percent change in GL-3 inclusions per kidney interstitial capillary, and percent of interstitial capillaries with zero GL-3 inclusions.
Efficacy analyses for GL-3 inclusions per kidney interstitial capillary and other pre-specified endpoints in Stage 2 (months 6-12) and the open-label-extension (months 12-24) were based on the modified intention to treat (mITT)—population consisting of randomized patients with mutant α-Gal A enzyme shown to be suitable for migalastat treatment by the validated assay; n=50).
(§3) For all outcomes except GL-3 inclusions per kidney interstitial capillary, data are pooled for patients within phenotype subgroups regardless of treatment allocation for the first six months (migalastat or placebo).

plasma lyso-Gb3 = experiment: Phase 3 study, ERT-naïve Fabry patients: plasma lyso-Gb3 by liquid chromatography-mass-spectroscopy; format: in vivo, human; conditions: baseline (or month 6) to month 24
Experimental: Globotriaosylceramide and Globotriaosylsphingosine. Plasma lyso-Gb3 and 24-hour urine GL-3 were analyzed by liquid chromatography-mass-spectroscopy using a novel stable isotope-labeled internal standard, 13C6-lyso-Gb3 (lower-limit-of-quantification: 0.200 ng/mL, 0.254 nmol/L).
as §3

[5] = +10 μM migalastat, HEK-293 cell lysate, mean ± SEM, n = 20
[6] = HEK293, 10 μM migalastat minus baseline, read-out: Absolute increase at 10 μM (% WT)

Question: Which “α-Gal A activity at 10 μM (fold over baseline)” value ([1]; 10 μM migalastat) does the source give for `OC[C@H]1NC[C@H](O)[C@@H](O)[C@H]1O` [migalastat] here?
Answer: 11.58 fold over baseline

Question: What about the “+Migalastat α-Gal A activity” value [1, 5] of the same compound?
Answer: 2924 ± 335 nmol/mg/h

Question: What about the “+Migalastat α-Gal A activity % WT” value [1, 5] of the same compound?
Answer: 9.2 ± 1.2 % WT

Question: What about the activation at 10 µM [1, 6] of the same compound?
Answer: 8.4%

Question: And the “Absolute increase at 10 μM (% WT)” value ([2]; 10 μM migalastat minus baseline)?
Answer: 3.0 % WT

Question: And the “+Migalastat α-Gal A activity” value [2, 5]?
Answer: 877 ± 18 nmol/mg/h

Question: What about the “+Migalastat α-Gal A activity % WT” value [2, 5] of the same compound?
Answer: 3.0 ± 0.2 % WT

Question: What about the “α-Gal A activity at 10 μM (fold over baseline)” value ([3]; 10 μM migalastat) of the same compound?
Answer: 3.32 fold over baseline

Question: And the “+Migalastat α-Gal A activity” value [3, 5]?
Answer: 5128 ± 288 nmol/mg/h

Question: And the “+Migalastat α-Gal A activity % WT” value [3, 5]?
Answer: 15.7 ± 0.8 % WT

Question: What about the activation at 10 µM [3, 6] of the same compound?
Answer: 10.9%

Question: What about the “mean (SD) change in GL-3 inclusions per kidney interstitial capillary” value ([4]; classic male patients switched from placebo to migalastat at month 6, next 6 months) of the same compound?
Answer: −0.7 (0.91)

Question: And the “mean change in GL-3 inclusions” value ([4]; total amenable patient population, 6 months of migalastat treatment)?
Answer: −0.25

Question: And the “mean change in GL-3 inclusions” value ([4]; total patient population, after switching from placebo to migalastat at month 6)?
Answer: −0.33

Question: And the “average (SD) change in plasma lyso-Gb3” value (plasma lyso-Gb3; classic males)?
Answer: −36.04 (34.48) nmol/L

Question: And the “average (SD) change in plasma lyso-Gb3” value (plasma lyso-Gb3; other patients)?
Answer: −16.33 (19.73) nmol/L
